Holding throughout (assay type): in vivo
Test [1] relates to pigweed (Amaranthus retroflexus). Kind of test: Test B pre-/postemergence plant response. Particulars: Amaranthus retroflexus, 240 h, read-out: Plant response rating, Pigweed; for pest or weed control at 125 g/ha: 125 g ai/ha; for pest or weed control at 500 g/ha: 500 g ai/ha. In a few lines:
(§1)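 Visual injury rating, 0 (no effect) to 100 (complete control), vs untreated controls after ~10 d greenhouse. Pre: directed soil spray after planting in loam/sand. Post: plants 2–10 cm, 1–2 leaf stage. Compound in non-phytotoxic solvent plus surfactant.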

For test [2], the system named is wheat (Triticum aestivum). Kind of test: Test B pre-/postemergence plant response. As to conditions: Triticum aestivum, 240 h, read-out: Plant response rating, Wheat; for plant injury at 125 g/ha: 125 g ai/ha; for plant injury at 500 g/ha: 500 g ai/ha. In a few lines: as §1
Test [3] deals with giant foxtail (Setaria faberii). As to the kind of experiment: Test B pre-/postemergence plant response. Particulars: Setaria faberi, 240 h, read-out: Plant response rating, Foxtail, Giant; for pest or weed control at 125 g/ha: 125 g ai/ha; for pest or weed control at 500 g/ha: 500 g ai/ha. A digest of the protocol: as §1
Test [4] concerns corn (Zea mays). As to the kind of experiment: Test B pre-/postemergence plant response. As to conditions: Zea mays, 240 h; for Corn plant response rating (crop injury, 0 = no effect, 100 = complete kill) at 125 g/ha: 125 g ai/ha; for Corn plant response rating (crop injury, 0 = no effect, 100 = complete kill) at 500 g/ha: 500 g ai/ha. In a few lines: as §1
The subject of test [5] is barnyardgrass (Echinochloa crus-galli). As to the kind of experiment: Test B pre-/postemergence plant response. Particulars: Echinochloa crus-galli, 240 h, read-out: Plant response rating, Barnyardgrass; for pest or weed control at 125 g/ha: 125 g ai/ha; for pest or weed control at 500 g/ha: 500 g ai/ha. In a few lines:
as §1

The test system of test [6] is small-flower umbrella sedge (Cyperus difformis). As to the kind of experiment: Test C flooded paddy test plant response. As to conditions: Cyperus difformis; Flood, 250 g ai/ha; scale of 0 to 100 where 0 is no effect and 100 is complete control; 13 to 15 days; read-out: Sedge, Umbrella plant response rating. In a few lines: (§2)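 Visual injury ratings (0, no effect; 100, complete control) were assigned after 13 to 15 days in a greenhouse, comparing treated plants with controls. Compounds had been added straight into paddy water over 2-leaf-stage plants flooded to 3 cm.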

Test [7] concerns barnyardgrass (Echinochloa crus-galli). Kind of test: Test C flooded paddy test plant response. Particulars: Echinochloa crus-galli; Flood, 250 g ai/ha; scale of 0 to 100 where 0 is no effect and 100 is complete control; 13 to 15 days; read-out: Barnyardgrass plant response rating. A digest of the protocol:
as §2

Test [8] concerns ducksalad (Heteranthera limosa). Kind of test: Test C flooded paddy test plant response. Particulars: Heteranthera limosa; Flood, 250 g ai/ha; scale of 0 to 100 where 0 is no effect and 100 is complete control; 13 to 15 days; read-out: Ducksalad plant response rating. In a few lines:
as §2

For test [9], the system named is rice (Oryza sativa). Kind of test: Test C flooded paddy test plant response. As to conditions: Oryza sativa; Flood, 250 g ai/ha; scale of 0 to 100 where 0 is no effect and 100 is complete control; 13 to 15 days; read-out: Rice plant response rating. In a few lines: as §2
Setting [10] is: post-emergence, postemergence, 0 to 100 scale, 0 no effect, 100 complete control.
Where [11] appears, read: post-emergence, Postemergence, 0 to 100 scale (0 no effect, 100 complete control).
The mark [12] stands for this setting: pre-emergence, Preemergence, 0 to 100 scale where 0 is no effect and 100 is complete control.
[13] abbreviates: pre-emergence, Preemergence, 0 to 100 scale (0 no effect, 100 complete control).

Molecules are shown by their SMILES. Where two headings read alike, the source gives them in different places.

In the case of `FC(F)(F)c1ccnc(-c2ccccc2Oc2ncc(Cl)cn2)c1` [Compound 25, 5-chloro-2-[2-[4-(trifluoromethyl)-2-pyridinyl]phenoxy]pyrimidine], the pest or weed control at 125 g/ha was 30% in test [1] (setting [10]); 60% in test [1] (setting [12]); 0% in [3] (setting [10]); 40% in test [3] (setting [12]); 0% in test [5] (setting [10]); 10% in [5] (setting [12]). The pest or weed control at 500 g/ha in test [1] (setting [11]) is 90%; in test [1] (setting [12]), 100%; in test [3] (setting [11]), 60%; in test [3] (setting [12]) it was 90%; in test [5] (setting [11]) it was 30%; in [5] (setting [12]) it was 70%. Besides, the plant injury at 125 g/ha in test [2] (setting [10]) and in test [2] (setting [12]) was 0% throughout. Moreover, the plant injury at 500 g/ha in test [2] (setting [11]) worked out at 10%; in test [2] (setting [12]) it was 0%. Further, the figures for the Corn plant response rating (crop injury, 0 = no effect, 100 = complete kill) at 125 g/ha in test [4] (setting [10]) and in test [4] (setting [12]) were 10% and 0%, respectively. The Corn plant response rating (crop injury, 0 = no effect, 100 = complete kill) at 500 g/ha in [4] (setting [11]) was found to be 30%; in test [4] (setting [12]), 0%. Moreover, the pest or weed control at 250 g/ha in test [6] stood at 20%; in test [7] it was 0%; in [8], 30%. Besides, the plant injury at 250 g/ha in test [9] is 0%.

With `FC(F)(F)c1nccc(-c2ccccc2Oc2ncc(Br)cn2)n1` [Compound 21, 4-[2-[(5-bromo-2-pyrimidinyl)oxy]phenyl]-2-(trifluoromethyl)pyrimidine], the pest or weed control at 125 g/ha in [1] (setting [10]) is 80%; in test [1] (setting [12]), 30%; in [3] (setting [10]) it was 0%; in test [3] (setting [12]) it was 70%; in [5] (setting [10]), 0%; in test [5] (setting [12]) it was 0%. Also, the pest or weed control at 500 g/ha was 100% in test [1] (setting [11]); 90% in [1] (setting [13]); 60% in [3] (setting [11]); 100% in test [3] (setting [13]); 60% in test [5] (setting [11]); 50% in test [5] (setting [13]). The plant injury at 125 g/ha in [2] (setting [10]) and in test [2] (setting [12]) was 0% each time. Besides, the plant injury at 500 g/ha in [2] (setting [11]) and in [2] (setting [13]) was 0% in each case. Besides, the Corn plant response rating (crop injury, 0 = no effect, 100 = complete kill) at 125 g/ha in test [4] (setting [10]) and in test [4] (setting [12]) was 0% throughout. Moreover, the Corn plant response rating (crop injury, 0 = no effect, 100 = complete kill) at 500 g/ha in [4] (setting [11]) is 40%; in test [4] (setting [13]), 0%. In addition, the pest or weed control at 250 g/ha in test [6], in test [7] and in [8] was 0% each time. In [9], the plant injury at 250 g/ha came to 0%.

Take `Cc1ccc(Oc2ncc(Cl)cn2)c(-c2ccc(C(F)(F)F)nc2)c1` [Compound 22, 5-chloro-2-[4-methyl-2-[6-(trifluoromethyl)-3-pyridinyl]phenoxy]pyrimidine]: the pest or weed control at 125 g/ha in test [1] (setting [10]), in test [1] (setting [12]), in test [3] (setting [10]), in test [3] (setting [12]), in [5] (setting [10]) and in test [5] (setting [12]) was 0% each time. Also, the pest or weed control at 500 g/ha in test [1] (setting [11]), in test [1] (setting [13]), in [3] (setting [11]), in [3] (setting [13]), in test [5] (setting [11]) and in test [5] (setting [13]) was 0% in each case. Further, the plant injury at 125 g/ha in test [2] (setting [10]) and in test [2] (setting [12]) was 0% each time. Further, the plant injury at 500 g/ha in test [2] (setting [11]) and in [2] (setting [13]) was 0% throughout. The Corn plant response rating (crop injury, 0 = no effect, 100 = complete kill) at 125 g/ha in [4] (setting [10]) and in [4] (setting [12]) was 0% throughout. Also, the Corn plant response rating (crop injury, 0 = no effect, 100 = complete kill) at 500 g/ha in test [4] (setting [11]) and in [4] (setting [13]) was 0% in each case. Also, the pest or weed control at 250 g/ha in [6], in test [7] and in test [8] was 0% throughout. The plant injury at 250 g/ha in test [9] is 0%.
